Source: ChEMBL document CHEMBL4376834, “Discovery of 4H-Chromen-4-one Derivatives as a New Class of Selective Rho Kinase (ROCK) Inhibitors, which Showed Potent Activity in ex Vivo Diabetic Retinopathy Models” (J Med Chem, 2019)

Assays:
[1] = molecular target: Serine/threonine-protein kinase WNK3 (Homo sapiens, UniProt Q9BYP7); assay: Inhibition of recombinant human WNK3 (1 to 434 residues) using myelin basic protein as substrate incubated for 40 mins in presence of [gamma33P]ATP by radiometric scintillation counting analysis
[2] = molecular target: cGMP-dependent protein kinase 1 (Homo sapiens, UniProt Q13976); assay: Inhibition of recombinant full length human PKG1alpha using RRRLSFAEPG as substrate incubated for 40 mins in presence of [gamma-33P]ATP and 10 uM ATP by radiometric scintillation counting analysis
[3] = molecular target: Cytoplasmic tyrosine-protein kinase BMX (Homo sapiens, UniProt P51813); assay: Inhibition of recombinant full length human BMX using poly(Glu, Tyr) 4:1 as substrate incubated for 40 mins in presence of [gamma-33ATP] by radiometric scintillation counting analysis
[4] = molecular target: Receptor-interacting serine/threonine-protein kinase 1 (Homo sapiens, UniProt Q13546); assay: Inhibition of recombinant human RIPK1 (8 to 322 residues) using myelin basic protein as substrate incubated for 40 mins in presence of [gamma33P]ATP by radiometric scintillation counting analysis
Chain of Receptor-interacting serine/threonine-protein kinase 1 (Q13546 whole entry, the tested form may be a part): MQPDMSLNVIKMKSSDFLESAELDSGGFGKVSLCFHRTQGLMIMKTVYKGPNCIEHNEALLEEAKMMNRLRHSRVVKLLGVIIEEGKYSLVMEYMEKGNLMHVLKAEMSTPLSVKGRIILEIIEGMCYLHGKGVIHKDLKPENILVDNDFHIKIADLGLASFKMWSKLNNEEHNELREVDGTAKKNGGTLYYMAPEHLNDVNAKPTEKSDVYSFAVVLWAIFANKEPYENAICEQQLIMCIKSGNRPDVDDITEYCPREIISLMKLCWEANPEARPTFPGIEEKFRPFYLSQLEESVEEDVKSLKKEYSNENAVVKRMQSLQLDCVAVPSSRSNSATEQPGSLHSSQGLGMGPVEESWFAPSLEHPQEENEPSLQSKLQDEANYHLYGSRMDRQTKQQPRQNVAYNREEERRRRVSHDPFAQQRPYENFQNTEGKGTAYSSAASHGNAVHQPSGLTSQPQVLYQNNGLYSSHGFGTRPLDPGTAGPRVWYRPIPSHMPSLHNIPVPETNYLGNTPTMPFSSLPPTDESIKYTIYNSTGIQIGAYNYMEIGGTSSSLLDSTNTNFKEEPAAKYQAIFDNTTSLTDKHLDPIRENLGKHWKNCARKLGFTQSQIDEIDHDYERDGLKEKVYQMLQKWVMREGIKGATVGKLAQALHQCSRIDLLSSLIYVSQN

[5] = molecular target: Eukaryotic translation initiation factor 2-alpha kinase 3 (Homo sapiens, UniProt Q9NZJ5); assay: Inhibition of human PEK (536 to end residues) using RSRSRSRSRSRSRSR as substrate measured after 40 mins in presence of [gamma33P]ATP by radiometric scintillation counting analysis
[6] = molecular target: Tyrosine-protein kinase ABL1 (Homo sapiens, UniProt P00519, Y253F); assay: Inhibition of human recombinant ABL1 Y253F mutant (27 to end residues) using EAIYAAPFAKKK as substrate incubated for 40 mins in presence of [gamma-33P]ATP by radiometric scintillation counting analysis
[7] = molecular target: Serine/threonine-protein kinase tousled-like 1 (Homo sapiens, UniProt Q9UKI8); assay: Inhibition of recombinant full-length human TLK1 using casein as substrate incubated for 40 mins in presence of [gamma33P]ATP by radiometric scintillation counting analysis
Chain of Serine/threonine-protein kinase tousled-like 1 (Q9UKI8 whole entry): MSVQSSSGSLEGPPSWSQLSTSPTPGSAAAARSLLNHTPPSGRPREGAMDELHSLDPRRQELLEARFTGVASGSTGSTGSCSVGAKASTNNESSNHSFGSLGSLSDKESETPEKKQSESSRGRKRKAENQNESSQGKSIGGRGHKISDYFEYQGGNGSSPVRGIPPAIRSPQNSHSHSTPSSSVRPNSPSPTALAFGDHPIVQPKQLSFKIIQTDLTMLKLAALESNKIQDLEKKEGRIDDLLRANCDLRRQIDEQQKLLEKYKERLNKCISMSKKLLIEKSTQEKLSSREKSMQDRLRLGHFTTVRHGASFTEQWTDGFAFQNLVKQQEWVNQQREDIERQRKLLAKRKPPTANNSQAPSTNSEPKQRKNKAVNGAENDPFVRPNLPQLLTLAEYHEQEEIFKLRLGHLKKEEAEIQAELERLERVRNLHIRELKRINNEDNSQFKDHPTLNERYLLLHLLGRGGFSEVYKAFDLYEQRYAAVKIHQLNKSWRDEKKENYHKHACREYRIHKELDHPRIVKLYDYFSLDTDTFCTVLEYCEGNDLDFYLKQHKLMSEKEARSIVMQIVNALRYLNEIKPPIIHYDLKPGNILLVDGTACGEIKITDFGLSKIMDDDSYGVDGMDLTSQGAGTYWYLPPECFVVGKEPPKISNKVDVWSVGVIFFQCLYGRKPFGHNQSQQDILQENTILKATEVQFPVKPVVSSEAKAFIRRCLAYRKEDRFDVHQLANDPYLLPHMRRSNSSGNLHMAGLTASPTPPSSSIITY

[8] = molecular target: Casein kinase II subunit alpha (Homo sapiens, UniProt P68400); assay: Inhibition of recombinant full length human CK2alpha1 using RRRDDDSDDD as substrate incubated 40 mins in presence of [gamma-33ATP] by radiometric scintillation counting analysis
[9] = molecular target: Non-receptor tyrosine-protein kinase TYK2 (Homo sapiens, UniProt P29597); assay: Inhibition of recombinant human TYK2 (875 to end residues) using GGMEDIYFEFMGG as substrate incubated for 40 mins in presence of [gamma33P]ATP by radiometric scintillation counting analysis
[10] = molecular target: Macrophage-stimulating protein receptor (Homo sapiens, UniProt Q04912); assay: Inhibition of recombinant human Ron (983 to end residues) using GGMEDIYFEFMGGKKK as substrate incubated for 40 mins in presence of [gamma33P]ATP by radiometric scintillation counting analysis
CDK2/Cyclin A1 = CDK2/Cyclin A1 (Homo sapiens, UniProt P24941); assay: Inhibition of recombinant full length human CDK2/CyclinA using Histone H1 as substrate incubated for 40 mins in presence of [gamma-33ATP] by radiometric scintillation counting analysis; type: protein-complex assay
[11] = molecular target: Platelet-derived growth factor receptor alpha (Homo sapiens, UniProt P16234, D842V); assay: Inhibition of human PDGFRalpha D842V mutant (550 to end residues) using GGMEDIYFEFMGG as substrate measured after 40 mins in presence of [gamma33P]ATP by radiometric scintillation counting analysis
Chain of Platelet-derived growth factor receptor alpha (P16234 24-1089 D842V limits assumed): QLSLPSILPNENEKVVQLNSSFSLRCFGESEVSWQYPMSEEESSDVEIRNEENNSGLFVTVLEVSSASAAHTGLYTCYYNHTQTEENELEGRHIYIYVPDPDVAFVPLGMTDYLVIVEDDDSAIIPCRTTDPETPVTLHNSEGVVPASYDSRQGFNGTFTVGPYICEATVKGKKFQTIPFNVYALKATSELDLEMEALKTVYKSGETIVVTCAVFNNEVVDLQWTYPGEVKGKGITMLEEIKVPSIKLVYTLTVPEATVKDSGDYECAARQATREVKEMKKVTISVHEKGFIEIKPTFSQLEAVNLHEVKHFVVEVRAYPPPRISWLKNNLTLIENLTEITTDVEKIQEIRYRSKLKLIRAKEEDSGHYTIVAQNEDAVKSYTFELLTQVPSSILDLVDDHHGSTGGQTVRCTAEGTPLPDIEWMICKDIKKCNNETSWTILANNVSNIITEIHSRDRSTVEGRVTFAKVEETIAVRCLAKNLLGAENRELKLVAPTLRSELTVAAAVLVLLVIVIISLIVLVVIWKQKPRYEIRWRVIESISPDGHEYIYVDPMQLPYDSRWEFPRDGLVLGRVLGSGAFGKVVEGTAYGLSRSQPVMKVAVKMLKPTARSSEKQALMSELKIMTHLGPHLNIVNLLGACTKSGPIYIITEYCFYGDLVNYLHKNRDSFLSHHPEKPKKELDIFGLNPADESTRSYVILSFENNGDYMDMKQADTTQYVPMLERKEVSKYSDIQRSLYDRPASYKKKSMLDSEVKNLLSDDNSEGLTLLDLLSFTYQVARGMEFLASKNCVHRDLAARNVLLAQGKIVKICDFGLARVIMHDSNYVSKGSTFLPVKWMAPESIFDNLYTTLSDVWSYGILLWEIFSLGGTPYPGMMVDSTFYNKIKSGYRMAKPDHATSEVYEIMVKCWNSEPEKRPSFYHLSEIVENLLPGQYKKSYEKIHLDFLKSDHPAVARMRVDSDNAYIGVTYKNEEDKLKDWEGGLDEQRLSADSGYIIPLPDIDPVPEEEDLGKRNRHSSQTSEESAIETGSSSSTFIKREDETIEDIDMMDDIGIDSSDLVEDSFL

[12] = molecular target: Dual specificity mitogen-activated protein kinase kinase 1 (Homo sapiens, UniProt Q02750); assay: Inhibition of recombinant full length human MEK1 using inactive MAPK2 as substrate incubated for 40 mins in presence of [gamma-33ATP by radiometric scintillation counting analysis
[13] = molecular target: Serine/threonine-protein kinase TAO2 (Homo sapiens, UniProt Q9UL54); assay: Inhibition of recombinant human TAO2 (1 to 320 residues) using myelin basic protein as substrate incubated for 40 mins in presence of [gamma33P]ATP by radiometric scintillation counting analysis
Chain of Serine/threonine-protein kinase TAO2 (Q9UL54 whole entry, the tested form may be a part): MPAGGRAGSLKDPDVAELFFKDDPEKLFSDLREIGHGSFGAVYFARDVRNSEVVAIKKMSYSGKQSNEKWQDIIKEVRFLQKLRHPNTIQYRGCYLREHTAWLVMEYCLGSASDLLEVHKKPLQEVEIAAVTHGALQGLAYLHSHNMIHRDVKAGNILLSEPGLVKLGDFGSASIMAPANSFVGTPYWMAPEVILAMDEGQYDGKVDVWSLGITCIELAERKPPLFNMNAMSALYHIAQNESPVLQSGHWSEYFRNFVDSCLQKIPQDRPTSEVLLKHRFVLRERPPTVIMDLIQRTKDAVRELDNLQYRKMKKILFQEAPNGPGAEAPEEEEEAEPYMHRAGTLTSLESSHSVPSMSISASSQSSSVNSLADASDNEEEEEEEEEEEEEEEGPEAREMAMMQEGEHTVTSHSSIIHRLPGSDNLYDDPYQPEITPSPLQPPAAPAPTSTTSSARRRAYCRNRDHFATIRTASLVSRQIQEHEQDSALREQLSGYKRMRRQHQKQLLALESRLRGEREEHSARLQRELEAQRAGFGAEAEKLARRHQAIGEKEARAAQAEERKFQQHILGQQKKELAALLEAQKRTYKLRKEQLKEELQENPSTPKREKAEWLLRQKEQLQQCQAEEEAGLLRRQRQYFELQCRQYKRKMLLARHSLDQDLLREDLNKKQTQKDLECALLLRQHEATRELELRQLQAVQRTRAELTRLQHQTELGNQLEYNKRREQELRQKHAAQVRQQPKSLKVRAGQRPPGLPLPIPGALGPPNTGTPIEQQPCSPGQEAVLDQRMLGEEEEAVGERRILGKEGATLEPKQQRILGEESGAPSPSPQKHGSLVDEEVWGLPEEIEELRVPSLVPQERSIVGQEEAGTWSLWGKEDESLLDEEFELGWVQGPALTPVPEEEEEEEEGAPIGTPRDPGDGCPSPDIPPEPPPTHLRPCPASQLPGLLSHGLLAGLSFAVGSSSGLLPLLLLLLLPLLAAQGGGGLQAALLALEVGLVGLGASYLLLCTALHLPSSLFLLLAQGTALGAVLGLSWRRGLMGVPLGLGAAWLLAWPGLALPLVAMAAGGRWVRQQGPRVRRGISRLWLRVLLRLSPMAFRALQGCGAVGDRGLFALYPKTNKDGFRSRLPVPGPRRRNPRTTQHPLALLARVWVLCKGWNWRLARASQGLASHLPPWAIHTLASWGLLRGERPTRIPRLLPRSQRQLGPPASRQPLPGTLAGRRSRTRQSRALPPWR

[14] = molecular target: Tyrosine-protein kinase BTK (Homo sapiens, UniProt Q06187, R28H); assay: Inhibition of recombinant full length human BTK R28H mutant using KVEKIGEGTYGVV substrate incubated for 40 mins in presence of [gamma-33ATP] by radiometric scintillation counting analysis
Chain of Tyrosine-protein kinase BTK (Q06187 2-659 R28H limits assumed): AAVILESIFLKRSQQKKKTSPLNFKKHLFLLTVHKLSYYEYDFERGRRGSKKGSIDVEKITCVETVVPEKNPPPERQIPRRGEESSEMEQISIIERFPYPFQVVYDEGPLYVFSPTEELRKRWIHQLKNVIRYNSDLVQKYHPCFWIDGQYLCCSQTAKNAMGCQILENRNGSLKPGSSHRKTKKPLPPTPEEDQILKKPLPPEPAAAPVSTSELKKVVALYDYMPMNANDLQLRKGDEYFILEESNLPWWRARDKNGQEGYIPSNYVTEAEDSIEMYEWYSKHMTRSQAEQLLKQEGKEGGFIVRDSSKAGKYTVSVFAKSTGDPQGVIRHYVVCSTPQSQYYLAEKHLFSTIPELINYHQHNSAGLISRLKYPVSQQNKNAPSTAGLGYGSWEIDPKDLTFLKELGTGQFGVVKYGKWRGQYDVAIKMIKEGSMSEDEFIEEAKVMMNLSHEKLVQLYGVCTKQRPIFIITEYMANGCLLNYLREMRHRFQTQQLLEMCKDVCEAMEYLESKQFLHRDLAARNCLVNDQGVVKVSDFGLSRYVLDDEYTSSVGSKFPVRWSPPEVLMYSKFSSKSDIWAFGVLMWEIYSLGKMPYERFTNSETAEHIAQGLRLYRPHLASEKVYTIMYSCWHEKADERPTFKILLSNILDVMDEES

[15] = molecular target: Serine/threonine-protein kinase Nek3 (Homo sapiens, UniProt P51956); assay: Inhibition of recombinant full-length human NEK3 using myelin basic protein as substrate measured after 40 mins in presence of [gamma33P]ATP by radiometric scintillation counting analysis
[16] = molecular target: Protein kinase C iota type (Homo sapiens, UniProt P41743); assay: Inhibition of recombinant full-length human PKCiota using ERMRPRKRQGSVRR as substrate incubated for 40 mins in presence of [gamma33P]ATP by radiometric scintillation counting analysis
[17] = molecular target: Myosin light chain kinase 2, skeletal/cardiac muscle (Homo sapiens, UniProt Q9H1R3); assay: Inhibition of recombinant full length human MYLK2 using KKLNRTLSFAEPG as substrate measured after 40 mins in presence of [gamma33P]ATP by radiometric scintillation counting analysis
Misshapen-like kinase 1 = Misshapen-like kinase 1 (Homo sapiens, UniProt Q8N4C8); assay: Inhibition of recombinant human MINK (1 to 310 residues) using myelin basic protein as substrate incubated for 40 mins in presence of [gamma-33ATP by radiometric scintillation counting analysis
[18] = molecular target: Epidermal growth factor receptor (Homo sapiens, UniProt P00533, L861Q); assay: Inhibition of recombinant human EGFR L861Q mutant (696 to end residues) using poly(Glu, Tyr) 4:1 as substrate after 40 mins in presence of [gamma-33ATP] by radiometric scintillation counting analysis
TGF-beta receptor type-2 = TGF-beta receptor type-2 (Homo sapiens, UniProt P37173); assay: Inhibition of recombinant human TGFBR2 (188 to end residues) using MBP as substrate incubated for 120 mins in presence of [gamma33P]ATP by radiometric scintillation counting analysis
[19] = molecular target: Serine/threonine-protein kinase MRCK beta (Homo sapiens, UniProt Q9Y5S2); assay: Inhibition of recombinant human MRCKbeta (1 to 473 residues) using KKRNRTLTV as substrate incubated for 40 mins in presence of [gamma-33ATP by radiometric scintillation counting analysis
[20] = molecular target: Casein kinase I isoform delta (Homo sapiens, UniProt P48730); assay: Inhibition of recombinant human CK1delta (1 to 294 residues) using KRRRALS(p)VAS as substrate incubated for 40 mins in presence of [gamma-33ATP] by radiometric scintillation counting analysis
[21] = molecular target: Hepatocyte growth factor receptor (Homo sapiens, UniProt P08581, A1209G/V1290L); assay: Inhibition of recombinant human MET A1209G/V1290L double mutant (974 to end residues) using KKKGQEEEYVFIE as substrate incubated for 40 mins in presence of [gamma-33ATP by radiometric scintillation counting analysis
[22] = molecular target: Interferon-induced, double-stranded RNA-activated protein kinase (Homo sapiens, UniProt P19525); assay: Inhibition of recombinant human PKR (252 to end residues) using RSRSRSRSRSRSRS as substrate incubated for 40 mins in presence of [gamma33P]ATP by radiometric scintillation counting analysis
Chain of Interferon-induced, double-stranded RNA-activated protein kinase (P19525 whole entry): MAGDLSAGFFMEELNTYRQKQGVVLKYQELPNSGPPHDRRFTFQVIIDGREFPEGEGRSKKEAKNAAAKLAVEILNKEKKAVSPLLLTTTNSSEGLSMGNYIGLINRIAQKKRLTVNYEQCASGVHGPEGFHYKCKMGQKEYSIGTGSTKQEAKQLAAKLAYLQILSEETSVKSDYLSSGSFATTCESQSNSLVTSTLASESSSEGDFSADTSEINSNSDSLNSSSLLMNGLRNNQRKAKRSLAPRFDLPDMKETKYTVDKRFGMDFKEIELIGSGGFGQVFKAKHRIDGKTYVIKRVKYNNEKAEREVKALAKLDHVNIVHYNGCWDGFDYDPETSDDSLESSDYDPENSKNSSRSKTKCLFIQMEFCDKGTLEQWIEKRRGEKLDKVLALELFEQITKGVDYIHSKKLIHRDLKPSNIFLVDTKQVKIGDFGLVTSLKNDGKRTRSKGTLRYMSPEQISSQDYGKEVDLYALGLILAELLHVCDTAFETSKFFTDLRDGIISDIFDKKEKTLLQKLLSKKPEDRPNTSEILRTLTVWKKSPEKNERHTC

Measured: IC50

CN(C)c1ccc(C(=O)Nc2cccc(NC(=O)COc3ccc4c(=O)ccoc4c3)c2)cc1
> 10 µM: [1] | [3] | [4] | [5] | [6] | [7] | [8] | [9] | [10] | CDK2/Cyclin A1 | [11] | [12] | [13] | [14] | [15] | [16] | [17] | Misshapen-like kinase 1 | [18] | TGF-beta receptor type-2 | [19] | [20] | [21] | [22]
0.517 µM: [2]
